How the values were obtained:
[1] = test system: lethal sepsis caused by peritonitis (cecal perforation); assay: Cecal ligation and puncture (CLP) peritonitis/sepsis: survival; assay type: in vivo, Balb/C mice
Description: Animal Experiments. Male 6-8 week old Balb/C mice (20-25 g) were purchased from Harlen Sprague-Dawley (Indianapolis, Ind.) and allowed to acclimate for 7 days housed at 25° C. on a 12 h light/dark cycle. Animals were randomly grouped (10 mice per group) and assigned to a specific experiment. All animal experiments were performed in accordance with the National Institutes of Health Guidelines under protocols approved by the Institutional Animal Care and Use Committee of North Shore University Hospital and New York University Medical School.
Cecal ligation and puncture (CLP). Cecal ligation and puncture (CLP) was performed as described by (Wichterman et al., J. Surg. Res. (1980) 29(2):189-201). Briefly, mice were anesthetized with 20 mg/ml xylazine intramuscularly at a dose of […], a midline incision was performed, and the cecum was isolated. A 6-0 prolene suture ligature was placed at a level 5.0 mm from the cecal tip away from the ileocecal valve. The ligated cecal stump was then punctured once with a 22-gauge needle, and stool extruded (1 mm) to ascertain patency of the puncture site. […] Mortality was recorded for up to 1 week after the procedure; survivors were followed for 3 weeks to ensure no late mortalities had occurred. […]

[2] = test system: TNF; assay: TNF release by LPS-stimulated RAW 264.7 macrophage cultures (ELISA); assay type: cell-based, murine
Description: Cell Culture. BALB/c murine macrophage-like RAW 264.7 cells obtained from the American Type Culture Collection (ATCC Number TIB-71, ATCC, Rockville, Mass.) (61), were cultured in RPMI 1640 (Life Technologies, Grand Island, N.Y.) supplemented with 10% heat inactivated fetal bovine serum (Gemini, Calabasas, Calif.), 2 mM glutamine (Cat. # 25030-149, Gibco BRL, Rockville, Mass.) and antibiotic-antimycotic mix (Cat. # 15240-062, Gibco BRL, Rockville, Mass.) in a humidified incubator with 5% CO2. Cells were mechanically removed and resuspended in serum-free Opti-MEM I medium (Life Technology, Grand Island, N.Y.) to perform experiments at 75% confluence.
Cytokine measurements. TNF concentration in mouse serum and in conditioned media from RAW 264.7 cell cultures was measured by ELISA (minimum detectable concentration=10 pg/ml). […] Mouse serum IL-6 and IL-1β levels were measured using ELISA kits (R&D Systems, Inc., Minneapolis, Minn.). HMGB-1 was analyzed by western blot as previously described by Wang et al, 1999. […] Protein was electroblotting to Immun-blot PVDF membrane (Bio-rad, Hercules Calif.) and HMGB-1 was analyzed using polyclonal 241 antibody and secondary anti-rabbit horseradish peroxidase (Amersham, Pitscataway, N.J.). Standard curves were constructed using r-HMGB-1, and the intensity of the 30 kD band analyzed by densitometry. […]

## CCOC(=O)C(C)=O [ethyl pyruvate]
[1]; 40 mg/kg i.p. beginning 24 hours after onset of peritonitis, three weeks of monitoring, vehicle 5/17, P<0.005
  survival: 14/17
[1]; lower ethyl pyruvate doses, beginning 24 hours after onset of peritonitis
  protection against death: failed to confer significant protection against death
[2]; LPS-stimulated RAW 264.7 cells, highest doses of ethyl pyruvate
  synthesis of TNF at the highest doses tested: not completely inhibited
[2]; Mus musculus, RAW264.7, RAW 264.7 cells stimulated with 50 or 100 ng/ml LPS, conditioned media, read-out: concentration that suppressed 50% of the TNF response (EC50)
  EC50: 3.4 mM
